Assay results from US9856256B2, “Pyridino[1,2-A]pyrimidone analogue used as P13K inhibitor” (CHIA TAI TIANQING PHARMACEUTICAL GROUP CO., LTD., priority 2014, dated 2018).

Experiments:
PI3K (p110α) [1] = target: T1, PI3K (p110α) (Homo sapiens, UniProt P42336); experiment: In vitro enzyme activity assay, PI3K (p110α) kinase, Method I (HTRF); assay type: biochemical; set-up: recombinant full-length human PI3K p110α subunit; His-tag (N); host or cells: insect cells; details: 10 μM PI(4,5)P2 and 10 μM ATP), read-out: PI3K (p110α) enzyme activity_IC50
T1 sequence (P42336 whole entry): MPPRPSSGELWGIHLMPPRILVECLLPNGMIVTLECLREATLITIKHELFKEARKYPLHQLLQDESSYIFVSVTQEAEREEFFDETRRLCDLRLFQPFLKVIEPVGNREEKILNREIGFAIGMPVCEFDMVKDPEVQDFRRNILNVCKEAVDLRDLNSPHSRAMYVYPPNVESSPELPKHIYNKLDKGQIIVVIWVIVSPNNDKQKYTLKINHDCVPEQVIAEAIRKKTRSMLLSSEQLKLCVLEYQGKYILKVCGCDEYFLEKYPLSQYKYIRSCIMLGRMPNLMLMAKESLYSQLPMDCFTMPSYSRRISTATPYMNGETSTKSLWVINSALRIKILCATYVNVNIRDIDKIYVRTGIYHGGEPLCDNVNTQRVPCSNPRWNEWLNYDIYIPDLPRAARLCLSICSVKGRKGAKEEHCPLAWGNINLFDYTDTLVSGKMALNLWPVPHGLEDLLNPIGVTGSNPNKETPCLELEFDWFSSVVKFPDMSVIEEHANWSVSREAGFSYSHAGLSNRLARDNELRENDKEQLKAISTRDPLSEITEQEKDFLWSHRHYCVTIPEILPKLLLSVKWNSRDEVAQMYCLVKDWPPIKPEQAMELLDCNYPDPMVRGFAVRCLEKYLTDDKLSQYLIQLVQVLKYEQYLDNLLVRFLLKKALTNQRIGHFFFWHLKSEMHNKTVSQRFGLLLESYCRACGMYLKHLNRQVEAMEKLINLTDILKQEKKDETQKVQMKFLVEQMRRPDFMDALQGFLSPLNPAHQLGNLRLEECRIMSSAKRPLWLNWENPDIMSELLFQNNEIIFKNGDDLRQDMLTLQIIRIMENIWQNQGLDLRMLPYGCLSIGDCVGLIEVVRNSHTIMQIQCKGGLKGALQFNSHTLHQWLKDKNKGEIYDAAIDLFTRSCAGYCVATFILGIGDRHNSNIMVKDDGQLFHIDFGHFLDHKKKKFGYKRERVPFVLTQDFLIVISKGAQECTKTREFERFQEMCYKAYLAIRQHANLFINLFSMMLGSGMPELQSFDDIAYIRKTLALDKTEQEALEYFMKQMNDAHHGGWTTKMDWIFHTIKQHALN
T1 sequence (P27986 whole entry partner): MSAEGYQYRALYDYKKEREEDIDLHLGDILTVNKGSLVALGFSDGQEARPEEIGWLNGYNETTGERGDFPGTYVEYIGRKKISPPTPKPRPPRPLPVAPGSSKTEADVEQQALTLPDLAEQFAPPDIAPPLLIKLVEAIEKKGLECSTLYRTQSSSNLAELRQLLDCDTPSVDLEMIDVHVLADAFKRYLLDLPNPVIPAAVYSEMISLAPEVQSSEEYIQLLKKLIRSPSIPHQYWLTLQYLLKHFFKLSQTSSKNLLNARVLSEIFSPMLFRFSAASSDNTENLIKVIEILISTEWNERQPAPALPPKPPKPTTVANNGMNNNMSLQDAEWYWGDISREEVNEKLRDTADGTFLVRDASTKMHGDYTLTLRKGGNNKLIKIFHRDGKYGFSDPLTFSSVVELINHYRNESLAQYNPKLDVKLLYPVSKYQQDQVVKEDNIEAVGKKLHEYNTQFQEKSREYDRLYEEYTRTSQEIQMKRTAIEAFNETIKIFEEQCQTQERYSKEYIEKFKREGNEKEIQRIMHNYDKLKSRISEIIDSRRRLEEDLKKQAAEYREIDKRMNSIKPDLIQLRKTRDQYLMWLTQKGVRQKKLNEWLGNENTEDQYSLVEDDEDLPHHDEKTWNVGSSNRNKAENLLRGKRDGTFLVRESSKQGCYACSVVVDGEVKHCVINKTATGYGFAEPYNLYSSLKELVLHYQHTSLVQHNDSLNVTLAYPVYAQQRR
Experimental: (§1) PI3K (p110α) kinase activities of the compounds in all the examples of the present invention were tested via the following two methods, respectively.
Reaction buffer: HEPES 50 mM (pH7.0), NaN3 0.02%, BSA 0.01%. Orthovanadate 0.1 mM, and 1% DMSO.
Detection buffer: HEPES 10 mM (pH7.0), BSA 0.02%, KF 0.16 M, and EDTA 4 mM.
Enzymes for reaction: recombinant full-length human PI3K p110α subunit (molecular weight=128.4 kDa) with a His-tag at the N-terminus and unlabeled p85α subunit (molecular weight=83.6 kDa), which were expressed in insect cells.
Substrate for reaction: […] PIP2 substrate (PI(4,5)P2).
Reaction conditions: 10 μM PI(4,5)P2 and 10 μM ATP.
1. preparing the substrate in the freshly prepared reaction buffer;
(§2) 2. adding the kinase into the substrate reaction solution, and mixing gently;
3. transferring the compound dissolved in 100% DMSO into the kinase reaction solution by using Acoustic technique (Echo550; nanoliter rang), and incubating at room temperature for 10 minutes;
4. adding an appropriate concentration of ATP into the reaction system,
5. incubating at 30° C. for half an hour;
6. terminating the reaction by adding a stop solution;
7. adding the detection buffer and incubating overnight; and
8. detecting by using homogeneous time-resolved fluorescence (HTRF) method (excitation wavelength of 320 nm, measuring the ratio of the emission wavelength readings at 615 nm and 665 nm).

MCF-7 cells = experiment: In vitro cell activity assay (MCF-7, insulin stimulation, ELISA-One); assay type: cell-based; details: Homo sapiens, MCF7, compound 2 hours in serum-free media, then 10 μg/ml insulin 30 min
Experimental: Experimental Steps and Method Comprise:
1. MCF-7 cells were seeded at 2,5000 cells per well in a 96 well tissue culture plate in a complete media containing 10%0/FBS.
3. The cells were treated with 10 μg/ml insulin in serum-free media for 30 min.
4. During waiting period, lysis solution was prepared as below:
a) Enhancer Solution needs to be taken out from the refrigerator to be thawed.
b) Concentrated lysis solution was prepared by diluting Enhancer Solution 10-fold in 5× Lysis Buffer.
c) Lysis solution was prepared by diluting concentrated lysis solution 5-fold with ddH2O.
5. Any media were removed from wells and the wells were rinsed with PBS once quickly.
6. 50 μL of freshly prepared lysis solution were added into each well, with shaking at room temperature for 10 min.
7. After confirming that all cells get detached from wells, the lysis solution together with the cell debris was transferred to 1.5 ml tubes.
8. The tubes were vortexed several times to thoroughly mix the lysis solution and cells, and then, and then the mixture was centrifuged at 12,000 g for 10 min at 4° C.;
9. The desired number of ELISA-One microplate strips was determined. Unused strips were removed from frame and returned to storage pouch and seal. Wells for use in the assay were rinsed with 200 μL ddH2O to remove preservatives prior to use.
10. 50 μL of antibody mixture solution was added into each well. (Antibody mixture solution was prepared by mixing capture antibody reagent and detection antibody reagent equally, avoid vortexing)
11. 25 μL of lysate was added into each well of the ELISA-One microplate. The microplate was covered with adhesive seal and incubated for 1 hour at room temperature on a microplate shaker.
12. Each well was washed with 150 μL 1× wash buffer 3 times. After final wash, any remaining wash buffer was removed from wells. If necessary, leave microplate in 1× Wash Buffer for up to 30 min, until substrate mixture solution has been prepared.
13. The substrate mixture solution should be prepared when used, 100 μL of substrate mixture solution was added into each well, and then the microplate was sealed with tin foil and incubated at room temperature for 10 minutes on a microplate shaker.
14. 10 μL of stop solution was added into each well, and then mixed slightly (5-10 seconds) on a microplate shaker.
15. Corresponding ELISA-One filter set was installed to read the fluorescence signal intensity.

mTOR = target: T2, mTOR (Homo sapiens, UniProt P42345); experiment: In vitro enzyme activity assay, mTOR kinase (32P-ATP, P81 filter-binding); assay type: biochemical; details: 4EBPI substrate, 10 μM ATP; read-out: mTOR enzyme activity_IC50
T2 construct: recombinant human mTOR fragment (amino acid 1360-2549, molecular weight=163.9 kDa); GST-tag (N); host or cells: insect cells
T2 sequence (P42345 1360-2549): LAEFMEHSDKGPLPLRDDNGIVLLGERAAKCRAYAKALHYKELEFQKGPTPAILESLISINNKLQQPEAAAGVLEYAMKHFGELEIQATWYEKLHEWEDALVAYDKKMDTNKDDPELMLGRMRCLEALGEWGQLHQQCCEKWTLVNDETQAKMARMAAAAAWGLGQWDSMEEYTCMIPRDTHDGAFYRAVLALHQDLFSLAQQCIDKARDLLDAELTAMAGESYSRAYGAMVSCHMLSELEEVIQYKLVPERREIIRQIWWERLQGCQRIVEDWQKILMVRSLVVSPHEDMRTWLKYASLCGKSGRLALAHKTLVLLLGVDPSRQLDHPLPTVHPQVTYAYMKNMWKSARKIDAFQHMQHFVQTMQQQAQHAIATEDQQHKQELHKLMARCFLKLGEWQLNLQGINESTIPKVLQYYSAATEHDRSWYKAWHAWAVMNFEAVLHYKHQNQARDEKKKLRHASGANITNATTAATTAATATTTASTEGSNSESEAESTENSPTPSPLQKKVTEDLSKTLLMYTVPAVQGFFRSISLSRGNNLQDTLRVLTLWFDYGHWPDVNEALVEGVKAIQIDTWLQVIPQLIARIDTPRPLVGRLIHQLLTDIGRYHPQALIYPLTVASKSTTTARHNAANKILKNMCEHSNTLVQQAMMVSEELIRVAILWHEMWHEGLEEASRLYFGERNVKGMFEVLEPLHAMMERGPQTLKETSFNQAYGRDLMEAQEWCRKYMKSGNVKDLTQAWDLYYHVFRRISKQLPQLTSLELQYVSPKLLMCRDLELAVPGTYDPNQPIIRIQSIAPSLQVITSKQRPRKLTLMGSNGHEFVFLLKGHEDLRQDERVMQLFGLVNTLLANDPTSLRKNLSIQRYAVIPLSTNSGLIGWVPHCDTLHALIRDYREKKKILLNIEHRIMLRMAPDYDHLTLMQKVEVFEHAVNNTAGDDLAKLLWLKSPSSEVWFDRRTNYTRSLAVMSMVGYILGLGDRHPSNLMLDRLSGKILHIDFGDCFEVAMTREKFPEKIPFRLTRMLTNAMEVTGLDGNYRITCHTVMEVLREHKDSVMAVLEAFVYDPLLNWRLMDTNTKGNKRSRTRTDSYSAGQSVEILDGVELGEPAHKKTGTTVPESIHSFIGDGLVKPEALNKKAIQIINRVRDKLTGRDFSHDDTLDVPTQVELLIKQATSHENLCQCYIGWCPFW
Experimental: mTOR kinase activities of the compounds in all the examples of the present invention were tested via the following method.
Reaction buffer: 20 mM Hepes (pH 7.5), 10 mM MgCl2, 2 mM MnCl2, 1 mM EGTA, 0.02% Brij35, 0.02 mg/mL BSA, 0.1 mM Na3VO4, 2 mM DTT, and 2% DMSO.
Enzyme for reaction: recombinant human mTOR fragment (amino acid 1360-2549, molecular weight=163.9 kDa) with a GST-tag at the N-terminus, which was expressed in insect cells.
Substrate for reaction: recombinant full-length human 4EBPI (molecular weight=13.6 kDa) with a His-tag at the N-terminus, which was expressed in bacteria.
Reaction conditions: […] 4EBPI and 10 μM ATP.
1. adding the reaction substrate and other reaction factors into the freshly prepared reaction buffer;
as §2
3. transferring the compound dissolved in 100% DMSO into the kinase reaction solution by using Acoustic technique (Echo550; nanoliter rang), and incubating at room temperature for 20 minutes;
4. adding an appropriate concentration of ^32P-ATP into the reaction system;
5. incubating at room temperature for 2 hours;
6. detecting the kinase activity by using P81 filter-binding method.

PI3K (p110α) [2] = target: T1, PI3K (p110α); experiment: In vitro enzyme activity assay, PI3K (p110α) kinase, Method II (ADP-Glo assay); assay type: biochemical; set-up: purchased Millipore 14-602-K; details: read-out: PI3K (p110α) enzyme activity_IC50
Experimental: as §1
Dilution of the Compound:
The compound to be tested was diluted with a 3-fold concentration gradient, and 10 concentrations (from 10000 nM to 0.5 nM) were obtained in total.
50 nL of the compound was transferred to a reaction plate (PerkinElmer #6007299) and 3 μL of enzyme/substrate mixture (0.33 nM PI3Kalpha, Millipore #14-602-K/166.5 μM PIP2) was added. After 20 min incubation, 2 uL of ATP solution (100 uM) was added to initiate the reaction. After reacting for 2 hours at room temperature, 5 μL of ADP-Glo reagent was added to terminate the kinase reaction. Then the mixture was incubated at room temperature for 60 min to completely digest the remaining unreacted ATP, 10 uL of kinase detection reagent was added, and after 40 min incubation at room temperature, […] was readed on an Envision. PIP2, ATP, ADP-Glo and the kinase detection reagent were all from ADP-Glo kinase assay kit (Promega #V1792).
IC50 was calculated using standard 4-parameter fit method (Model205, XL-fit, iDBS).

SMILES	IC50 (PI3K (p110α) [1]) [nM]	IC50 (MCF-7 cells) [nM]	IC50 (mTOR) [nM]	IC50 (PI3K (p110α) [2]) [nM]
COc1ncc(-c2ccc3ncc(OCCN4CCOCC4)c(=O)n3c2)cc1NS(=O)(=O)c1sc(N)nc1C [Compound 16]	≤ 1	100 to 250	50 to 200	
COc1ncc(-c2ccc3ncc(OCCN4CCOCC4)c(=O)n3c2)cc1NS(=O)(=O)c1ccc(F)cc1F [Compound 13]	≤ 1		> 200	
COc1ncc(-c2ccc3ncc(OCCn4cccn4)c(=O)n3c2)cc1NS(=O)(=O)c1ccc(F)cc1F [Compound 37, 2,4-Difluoro-N-(2-methoxy-5-(4-oxo-3-(2-pyrazol-1-yl-ethoxy)pyrido[1,2-a]pyrimidin-7-yl)pyridin-3-yl)benzenesulfonamide]	≤ 1	100 to 250	50 to 200	
COc1ncc(-c2ccc3ncc(OC4CCNC4)c(=O)n3c2)cc1NS(=O)(=O)c1ccc(F)cc1F (centres unmarked) [Compound 44]	≤ 1		> 200	
COc1ncc(-c2ccc3ncc(OCC4(N)CC4)c(=O)n3c2)cc1NS(=O)(=O)c1ccc(F)cc1Cl [Compound 32]		50 to 100	50 to 200	≤ 1
CNCCOc1cnc2ccc(-c3cnc(OC)c(NS(=O)(=O)c4sc(C)nc4C)c3)cn2c1=O [Compound 6]	≤ 1		> 200	
COc1ncc(-c2ccc3ncc(OCCN4CCOCC4)c(=O)n3c2)cc1NS(=O)(=O)c1ccc(F)cc1Cl [Compound 11]	≤ 1	≤ 50	> 200	
COc1ncc(-c2ccc3ncc(OCCN4CCOCC4)c(=O)n3c2)cc1NS(=O)(=O)c1sc(C)nc1C [Compound 15]	≤ 1	≤ 50	50 to 200	
COc1ncc(-c2ccc3ncc(OCCN(C)C)c(=O)n3c2)cc1NS(=O)(=O)c1sccc1C [Compound 36]	≤ 1	≤ 50	> 200	
COc1ncc(-c2ccc3ncc(OCCN4CCCC4)c(=O)n3c2)cc1NS(=O)(=O)c1ccc(F)cc1F [Compound 42]	≤ 1	100 to 250	> 200	
COc1ncc(-c2ccc3ncc(OC4CCNCC4)c(=O)n3c2)cc1NS(=O)(=O)c1ccc(F)cc1F [Compound 41, 2,4-Difluoro-N-(2-methoxy-5-(4-oxo-3-(piperidin-4-yloxy)-4H-pyrido[1,2-a]pyrimidin-7-yl)pyridin-3-yl)benzenesulfonamide]	1 to 50		> 200	
COc1ncc(-c2ccc3ncc(OCC4CCCN4)c(=O)n3c2)cc1NS(=O)(=O)c1ccc(F)cc1Cl (centres unmarked) [Compound 78]		> 250		1 to 50
COCCN(CCOc1cnc2ccc(-c3cnc(OC)c(NS(=O)(=O)c4ccc(F)cc4Cl)c3)cn2c1=O)CC(F)(F)F [Compound 95]		≤ 50		1 to 50
COc1ncc(-c2ccc3ncc(OCCN4CCNCC4)c(=O)n3c2)cc1NS(=O)(=O)c1ccc(F)cc1Cl [Compound 75]		> 250		≤ 1
COc1ncc(-c2ccc3ncc(OCCN(C)C)c(=O)n3c2)cc1NS(=O)(=O)c1ccc(F)cc1Cl [Compound 25]		≤ 50	> 200	≤ 1
COc1ncc(-c2ccc3ncc(OCCN4CCOC(C)C4)c(=O)n3c2)cc1NS(=O)(=O)c1ccc(F)cc1Cl (centres unmarked) [Compound 89]		≤ 50		≤ 1
COc1ncc(-c2ccc3ncc(OC4CCN(C)C4)c(=O)n3c2)cc1NS(=O)(=O)c1ccc(F)cc1Cl (centres unmarked) [Compound 85]		50 to 100		1 to 50
COc1ncc(-c2ccc3ncc(OCCN4CCOCC4=O)c(=O)n3c2)cc1NS(=O)(=O)c1ccc(F)cc1Cl [Compound 65]		≤ 50		≤ 1
COc1ncc(-c2ccc3ncc(OCCN4CCCC4)c(=O)n3c2)cc1NS(=O)(=O)c1ccc(F)cc1Cl [Compound 27]		50 to 100	50 to 200	≤ 1
COc1ncc(-c2ccc3ncc(OCC4CCCN4C)c(=O)n3c2)cc1NS(=O)(=O)c1sc(C)nc1C (centres unmarked) [Compound 34]		50 to 100		≤ 1
COc1ncc(-c2ccc3ncc(OCCN4CCN(C(C)=O)CC4)c(=O)n3c2)cc1NS(=O)(=O)c1ccc(F)cc1Cl [Compound 90]		50 to 100		≤ 1
COc1ncc(-c2ccc3ncc(OCCN4CCOCC4)c(=O)n3c2)cc1NS(=O)(=O)c1ccc(F)c(F)c1 [Compound 62]		100 to 250		≤ 1
COc1ncc(-c2ccc3ncc(OCCN4CC5CC4CN5C)c(=O)n3c2)cc1NS(=O)(=O)c1sc(C)nc1C (centres unmarked) [Compound 5]		> 250		≤ 1
COc1ncc(-c2ccc3ncc(OCCN4CCC(C)(O)CC4)c(=O)n3c2)cc1NS(=O)(=O)c1ccc(F)cc1Cl [Compound 82]		100 to 250		≤ 1
COc1ncc(-c2ccc3ncc(OCCN4CCOCC4)c(=O)n3c2)cc1NS(=O)(=O)c1c(Cl)cccc1Cl [Compound 63]		≤ 50		≤ 1
